Reference: patent US7754220B2, “Methods of inhibiting secretion of follicle-stimulating hormone and testosterone” (Takeda Pharmaceutical Company Limited, priority 2003, dated 2010)

Assay: Level of human metastin in plasma by EIA after sustained administration
Assay type: in vivo
Conditions: rat, sc, male Copenhagen rats, continuous s.c. administration by osmotic pumps at 6.0 nmol/hr, 7 days after implantation
Procedure: Male Copenhagen rats of 8 weeks old after birth (Charles River Laboratories, US) were anesthetized by giving an intraperitoneal injection of sodium pentobarbital (Nembutal, Dainippon Pharmaceutical Co., Ltd.) in a dose of 50 mg/kg body weight. Then, two ALZET osmotic pumps (Model 2001, volume: 200 μL, rate: 1.0 μL/hr) filled with a 3 mM human metastin solution in distilled water (metastin group) or with distilled water (distilled water group) were implanted subcutaneously in rats at the back (5 rats in each group), whereby human metastin was continuously administered at a rate of 6.0 nmol/hr in the metastin group. For the intraperitoneal administration of sodium pentobarbital, a 1 mL tuberculin syringe and a 26-gauge needle (both by Terumo Co., Ltd.) were used. Following weighing the body weight 7 days after the implantation of the pumps, the animal was sacrificed by decapitation to collect blood. At the same time, the weight of testis was weighed. […] The levels of FSH (follicle-stimulating hormone), LH (luteinizing hormone) and testosterone contained in plasma were determined by radioimmunoassay (Rat Follicle Stimulating Hormone (rFSH) [^125I] Biotrack Assay System with Magnetic Separation, Rat Luteinizing Hormone (rLH) [^125I] Biotrack Assay System with Magnetic Separation, all by Amersham Biosciences, and DPC.Total Testosterone by Diagnostic Products Corporation).

level at time molar at 168 h: ~3.2 nM
Compound: CC[C@H](C)[C@H](NC(=O)[C@H](CCC(N)=O)NC(=O)[C@H](CCCNC(=N)N)NC(=O)[C@H](CO)NC(=O)[C@H](Cc1c[nH]cn1)NC(=O)[C@@H]1CCCN1C(=O)[C@H](C)NC(=O)[C@H](CO)NC(=O)[C@H](CC(C)C)NC(=O)CNC(=O)[C@@H]1CCCN1C(=O)[C@H](CCC(N)=O)NC(=O)[C@H](CCC(N)=O)NC(=O)[C@H](CCCNC(=N)N)NC(=O)[C@H](CO)NC(=O)CNC(=O)[C@H](CO)NC(=O)[C@H](CO)NC(=O)[C@H](CCC(=O)O)NC(=O)[C@@H]1CCCN1C(=O)[C@@H]1CCCN1C(=O)[C@@H]1CCCN1C(=O)[C@H](CO)NC(=O)[C@H](CC(C)C)NC(=O)[C@H](CO)NC(=O)[C@@H](NC(=O)CN)[C@@H](C)O)C(=O)N1CCC[C@H]1C(=O)N[C@@H](C)C(=O)N1CCC[C@H]1C(=O)N[C@@H](CCC(N)=O)C(=O)NCC(=O)N[C@@H](C)C(=O)N[C@H](C(=O)N[C@@H](CC(C)C)C(=O)N[C@H](C(=O)N[C@@H](CCC(N)=O)C(=O)N[C@@H](CCCNC(=N)N)C(=O)N[C@@H](CCC(=O)O)C(=O)N[C@@H](CCCCN)C(=O)N[C@@H](CC(=O)O)C(=O)N[C@@H](CC(C)C)C(=O)N1CCC[C@H]1C(=O)N[C@@H](CC(N)=O)C(=O)N[C@@H](Cc1ccc(O)cc1)C(=O)N[C@@H](CC(N)=O)C(=O)N[C@@H](Cc1c[nH]c2ccccc12)C(=O)N[C@@H](CC(N)=O)C(=O)N[C@@H](CO)C(=O)N[C@@H](Cc1ccccc1)C(=O)NCC(=O)N[C@@H](CC(C)C)C(=O)N[C@@H](CCCNC(=N)N)C(=O)N[C@@H](Cc1ccccc1)C(N)=O)C(C)C)C(C)C [Human metastin]
